Data taken from ChEMBL document CHEMBL4715903, “Design, Synthesis, and Biological Evaluation of IRAK4-Targeting PROTACs” (ACS Med Chem Lett, 2021).
Calls of active or inactive are those of the source. No cut-off for these calls is given here.

How the values were obtained:
TMD8 = experiment: Antiproliferative activity against human TMD8 cells harboring MYD88 L265P mutant assessed as inhibition of cell growth incubated for 72 hrs by CCK-8 assay; assay type: functional, cell-based; conditions: TMD8, 72 h
[1] = molecular target: T1, Protein cereblon/Interleukin-1 receptor-associated kinase 4 (Homo sapiens) (UniProt Q9NWZ3+Q96SW2); experiment: Protac activity at CRBN/IRAK4 in human TMD8 cells harboring MYD88 L265P mutant assessed as induction of IRAK4 degradation by measuring reduction in IRAK4 protein level at 1 uM incubated for 24 hrs by Western blot analysis; assay type: cell-based
T1 sequence (Q96SW2 whole entry, looked up, one chain of several): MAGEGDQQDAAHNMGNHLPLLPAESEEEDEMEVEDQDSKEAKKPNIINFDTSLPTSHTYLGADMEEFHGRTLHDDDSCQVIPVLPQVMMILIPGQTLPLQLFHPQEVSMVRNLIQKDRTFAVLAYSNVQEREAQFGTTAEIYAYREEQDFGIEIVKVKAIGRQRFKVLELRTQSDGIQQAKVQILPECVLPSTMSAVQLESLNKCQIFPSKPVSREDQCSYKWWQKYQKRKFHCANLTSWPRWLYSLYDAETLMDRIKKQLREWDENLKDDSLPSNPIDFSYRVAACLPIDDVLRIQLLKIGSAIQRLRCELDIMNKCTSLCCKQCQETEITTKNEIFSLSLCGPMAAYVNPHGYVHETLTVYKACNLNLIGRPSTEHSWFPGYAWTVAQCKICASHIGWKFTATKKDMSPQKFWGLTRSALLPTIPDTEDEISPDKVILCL

[2] = molecular target: T1, Protein cereblon/Interleukin-1 receptor-associated kinase 4 (Homo sapiens); experiment: Protac activity at CRBN/IRAK4 in human OCILY10 cells harboring MYD88 L265P mutant assessed as induction of IRAK4 degradation by measuring reduction in IRAK4 protein level at 1 uM incubated for 24 hrs by Western blot analysis; assay type: cell-based
[3] = molecular target: T1, Protein cereblon/Interleukin-1 receptor-associated kinase 4 (Homo sapiens); experiment: Protac activity at CRBN/IRAK4 in human OCILY10 cells assessed as inhibition of NFkappaB p65 phosphorylation at 2.5 to 20 uM incubated for 48 hrs by Western blot analysis; assay type: cell-based; conditions: dose 2.5-20 µM
OCI-Ly10 = experiment: Antiproliferative activity against human OCILY10 cells harboring MYD88 L265P mutant assessed as inhibition of cell growth incubated for 72 hrs by CCK-8 assay; assay type: functional, cell-based; conditions: OCI-Ly10, 72 h
[4] = molecular target: T2, Interleukin-1 receptor-associated kinase 4 (Homo sapiens, UniProt Q9NWZ3); experiment: Inhibition of human full length N-terminal His6-tagged recombinant IRAK4 expressed in baculovirus-infected Sf21 cells by Z'-LYTE assay
T2 sequence (Q9NWZ3 whole entry): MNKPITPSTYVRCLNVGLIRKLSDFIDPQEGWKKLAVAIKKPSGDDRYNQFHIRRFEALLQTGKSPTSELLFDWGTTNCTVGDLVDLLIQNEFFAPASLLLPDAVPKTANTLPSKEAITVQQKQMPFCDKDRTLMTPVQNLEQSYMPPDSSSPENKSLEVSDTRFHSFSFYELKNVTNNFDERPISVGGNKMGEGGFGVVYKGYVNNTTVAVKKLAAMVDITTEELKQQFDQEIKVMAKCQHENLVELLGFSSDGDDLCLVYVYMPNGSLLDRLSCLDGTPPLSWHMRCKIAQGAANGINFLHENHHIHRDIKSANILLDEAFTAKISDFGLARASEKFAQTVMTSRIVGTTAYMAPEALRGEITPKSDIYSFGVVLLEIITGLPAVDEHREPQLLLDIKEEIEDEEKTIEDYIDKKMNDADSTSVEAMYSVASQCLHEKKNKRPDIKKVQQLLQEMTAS

[5] = molecular target: T1, Protein cereblon/Interleukin-1 receptor-associated kinase 4 (Homo sapiens); experiment: Protac activity at CRBN/IRAK4 in human TMD8 cells assessed as inhibition of NF-kappaB p65 phosphorylation by Western blot analysis; assay type: cell-based; conditions: dose 0.1-10 µM
[6] = molecular target: T1, Protein cereblon/Interleukin-1 receptor-associated kinase 4 (Homo sapiens); experiment: Protac activity at CRBN/IRAK4 in human OCILY10 cells assessed as inhibition of IRAK4 phosphorylation by Western blot analysis; assay type: cell-based; conditions: dose 0.1-10 µM
[7] = molecular target: T1, Protein cereblon/Interleukin-1 receptor-associated kinase 4 (Homo sapiens); experiment: Protac activity at CRBN/IRAK4 in human OCILY10 cells assessed as inhibition of NF-kappaB p65 phosphorylation by Western blot analysis; assay type: cell-based; conditions: dose 0.1-10 µM
[8] = molecular target: T1, Protein cereblon/Interleukin-1 receptor-associated kinase 4 (Homo sapiens); experiment: Protac activity at CRBN/IRAK4 in human TMD8 cells harboring MYD88 L265P mutant assessed as induction of IRAK4 degradation at 1 uM in presence of CRBN recruiter, pomalidomide by Western blot analysis; assay type: cell-based
[9] = molecular target: T1, Protein cereblon/Interleukin-1 receptor-associated kinase 4 (Homo sapiens); experiment: Protac activity at CRBN/IRAK4 in human OCILY10 cells harboring MYD88 L265P mutant assessed as induction of IRAK4 degradation at 1 uM pretreated with proteasome inhibitor, MG132 for 2 hrs followed by compound addition by Western blot analysis; assay type: cell-based
[10] = molecular target: T1, Protein cereblon/Interleukin-1 receptor-associated kinase 4 (Homo sapiens); experiment: Protac activity at CRBN/IRAK4 in human TMD8 cells harboring MYD88 L265P mutant assessed as induction of IRAK4 degradation by measuring reduction in IRAK4 protein level incubated for 24 hrs by Western blot analysis; assay type: cell-based; conditions: dose 0.1-10 µM
[11] = molecular target: T1, Protein cereblon/Interleukin-1 receptor-associated kinase 4 (Homo sapiens); experiment: Protac activity at CRBN/IRAK4 in human TMD8 cells assessed as inhibition of IKKalpha/beta phosphorylation by Western blot analysis; assay type: cell-based; conditions: dose 0.1-10 µM
[12] = molecular target: T1, Protein cereblon/Interleukin-1 receptor-associated kinase 4 (Homo sapiens); experiment: (§1) Protac activity at CRBN/IRAK4 in human TMD8 cells harboring MYD88 L265P mutant assessed as induction of IRAK4 degradation at 1 uM in presence of IRAK4 inhibitor, Methyl 4-(5-ethoxy-1-methyl-6-(6-(trifluoromethyl)picolinamido)-1H-benzo[d]imidazol-2-yl)-2,2-dimethylbutanoate by Western blot analysis; assay type: cell-based
[13] = molecular target: T1, Protein cereblon/Interleukin-1 receptor-associated kinase 4 (Homo sapiens); experiment: Protac activity at CRBN/IRAK4 in human TMD8 cells harboring MYD88 L265P mutant assessed as induction of IRAK4 degradation at 1 uM pretreated with proteasome inhibitor, MG132 for 2 hrs followed by compound addition by Western blot analysis; assay type: cell-based
[14] = molecular target: T1, Protein cereblon/Interleukin-1 receptor-associated kinase 4 (Homo sapiens); experiment: Protac activity at CRBN/IRAK4 in human OCILY10 cells harboring MYD88 L265P mutant assessed as induction of IRAK4 degradation by measuring reduction in IRAK4 protein level at 1 uM by Western blot analysis; assay type: cell-based; conditions: time 1-24 hrs, TDE = time-dependent effect
[15] = molecular target: T1, Protein cereblon/Interleukin-1 receptor-associated kinase 4 (Homo sapiens); experiment: Protac activity at CRBN/IRAK4 in human OCILY10 cells harboring MYD88 L265P mutant assessed as induction of IRAK4 degradation by measuring reduction in IRAK4 protein level incubated for 24 hrs by Western blot analysis; assay type: cell-based; conditions: dose 0.1-10 µM
[16] = molecular target: T1, Protein cereblon/Interleukin-1 receptor-associated kinase 4 (Homo sapiens); experiment: Protac activity at CRBN/IRAK4 in human OCILY10 cells assessed as inhibition of IKKalpha/beta phosphorylation by Western blot analysis; assay type: cell-based; conditions: dose 0.1-10 µM
[17] = molecular target: T1, Protein cereblon/Interleukin-1 receptor-associated kinase 4 (Homo sapiens); experiment: Protac activity at CRBN/IRAK4 in human TMD8 cells assessed as inhibition of IRAK4 phosphorylation by Western blot analysis; assay type: cell-based; conditions: dose 0.1-10 µM
OCI-LY19 = experiment: Antiproliferative activity against human OCILY19 cells harboring wild type MYD88 assessed as inhibition of cell growth incubated for 72 hrs by CCK-8 assay; assay type: functional, cell-based
[18] = molecular target: T1, Protein cereblon/Interleukin-1 receptor-associated kinase 4 (Homo sapiens); experiment: as §1, with “OCILY10” for “TMD8”; assay type: cell-based
[19] = molecular target: T1, Protein cereblon/Interleukin-1 receptor-associated kinase 4 (Homo sapiens); experiment: Protac activity at CRBN/IRAK4 in human TMD8 cells harboring MYD88 L265P mutant assessed as induction of IRAK4 degradation by measuring reduction in IRAK4 protein level at 1 uM by Western blot analysis; assay type: cell-based; conditions: time 1-24 hrs, TDE = time-dependent effect
[20] = molecular target: T1, Protein cereblon/Interleukin-1 receptor-associated kinase 4 (Homo sapiens); experiment: Protac activity at CRBN/IRAK4 in human OCILY10 cells harboring MYD88 L265P mutant assessed as induction of IRAK4 degradation at 1 uM in presence of CRBN recruiter, pomalidomide by Western blot analysis; assay type: cell-based

| SMILES | IC50 (TMD8) | Activity [1] | Activity [2] | IC50 (OCI-Ly10) | also measured |
| --- | --- | --- | --- | --- | --- |
| CCOc1cc2nc(CCC(C)(C)C(=O)NCCOCCOCCNc3cccc4c3C(=O)N(C3CCC(=O)N(C)C3=O)C4=O)n(C)c2cc1NC(=O)c1cccc(C(F)(F)F)n1 (centres undefined) | > 50 µM | inactive | inactive | 11 µM | Activity [3]: inactive |
| CCOc1cc2nc(CCC(C)(C)C(=O)OC)n(C)c2cc1NC(=O)c1cccc(C(F)(F)F)n1 | > 50 µM | – | – | > 50 µM | IC50 [4]: 0.0707 µM |
| CCOc1cc2nc(CCC(C)(C)C(=O)NCCCCCNc3cccc4c3C(=O)N(C3CCC(=O)NC3=O)C4=O)n(C)c2cc1NC(=O)c1cccc(C(F)(F)F)n1 (centres undefined) | – | inactive | inactive | – | – |
| CCOc1cc2nc(CCC(C)(C)C(=O)NCCCNc3cccc4c3C(=O)N(C3CCC(=O)NC3=O)C4=O)n(C)c2cc1NC(=O)c1cccc(C(F)(F)F)n1 (centres undefined) | – | inactive | inactive | – | – |
| CCOc1cc2nc(CCC(C)(C)C(=O)NCCOCCNc3cccc4c3C(=O)N(C3CCC(=O)NC3=O)C4=O)n(C)c2cc1NC(=O)c1cccc(C(F)(F)F)n1 (centres undefined) | – | inactive | inactive | – | – |
| CCOc1cc2nc(CCC(C)(C)C(=O)NCCNc3cccc4c3C(=O)N(C3CCC(=O)NC3=O)C4=O)n(C)c2cc1NC(=O)c1cccc(C(F)(F)F)n1 (centres undefined) | – | inactive | inactive | – | – |
| CCOc1cc2nc(CCC(C)(C)C(=O)NCCCCCCNc3cccc4c3C(=O)N(C3CCC(=O)NC3=O)C4=O)n(C)c2cc1NC(=O)c1cccc(C(F)(F)F)n1 (centres undefined) | – | inactive | inactive | – | – |
| CCOc1cc2nc(CCC(C)(C)C(=O)NCCCCCCCNc3cccc4c3C(=O)N(C3CCC(=O)NC3=O)C4=O)n(C)c2cc1NC(=O)c1cccc(C(F)(F)F)n1 (centres undefined) | – | Active | inactive | – | – |
| CCOc1cc2nc(CCC(C)(C)C(=O)NCCOCCOCCNc3cccc4c3C(=O)N(C3CCC(=O)NC3=O)C4=O)n(C)c2cc1NC(=O)c1cccc(C(F)(F)F)n1 (centres undefined) | 7.6 µM | Active | Active | 4.6 µM | Activity [5]: Dose-dependent effect; Activity [6]: Dose-dependent effect; Activity [7]: Dose-dependent effect; Activity [8]: inactive; Activity [9]: inactive; Activity [10]: Dose-dependent effect; Activity [11]: Dose-dependent effect; Activity [12]: inactive; Activity [13]: inactive; Activity [14]: Tde; Activity [15]: Dose-dependent effect; Activity [16]: Dose-dependent effect; Activity [17]: Dose-dependent effect; Activity (OCI-LY19): inactive; Activity [3]: Active; Activity [18]: inactive; Activity [19]: Tde; Activity [20]: inactive |
| CCOc1cc2nc(CCC(C)(C)C(=O)NCCCCNc3cccc4c3C(=O)N(C3CCC(=O)NC3=O)C4=O)n(C)c2cc1NC(=O)c1cccc(C(F)(F)F)n1 (centres undefined) | – | inactive | inactive | – | – |
